Series [1] has as its system 3D7 strain of P. falciparum. The series can be described thus: High throughput quantitative parasite growth assay, luciferase expressing parasites. Format: cell-based, Plasmodium falciparum. The conditions noted are these: luciferase readout, approximately 60 hours growth. How it is done:
Numerous compounds were initially screened using a high throughput quantitative parasite growth assay that makes use of a strain of parasites expressing a cytoplasmic firefly luciferase (obtained from Dr. Kirk Deitsch, Cornell Medical College). These parasites were transfected with a vector containing the firefly luciferase gene using the malarial HRPII promoter. To grow parasites, culture dishes ranging from 96 well plates to 30 ml dishes were used. […] Parasites were cultured in human RBCs under an atmosphere of 5% O2/7% CO2/88% N2 in RPMI 1640 medium supplemented with 25 mM Hepes, 30 mg/L hypoxanthine, 0.225% (w/v) NaHCO3 and 0.5% (w/v) Albumax II (Life Technologies, Grand Island, N.Y.).
A standard luminescent readout was used to measure the growth of parasites. Parasites were grown under normal conditions, lysed in the presence of the luminescence reagents (Bright Glo, Promega) and then measured. To initially test for growth, luciferase expressing parasites were synchronized using serial sorbitol treatments and then parasitemia, the percentage of RBCS infected with parasites, was adjusted using uninfected RBCs. 100 μl of total media was used in a 96 well format. Parasitized RBCs were incubated in 96 well plates at 37° C. and gassed with 5% CO2, 5% O2, 90% N2. Parasites were allowed to grow for approximately 60 hours, until they successfully divided, ruptured and reinvaded new RBCs. At 10-15 hours post invasion, the cells were lysed, and luciferase levels were measured using an Analyst HT luminometer (Molecular Devices).

In another series the test system is P. falciparum 3D7. The series can be described thus: Cultures of P. falciparum 3D7, flow cytometry quantitation of parasitemia. Conditions: Plasmodium falciparum. Format: cell-based. The source says: (§1) Flow cytometry was used for quantitation of parasitemia using SYOX Green on an LSRII.
Background: A flow cytometer gives signals particle by particle.

For a further series, the system named is P. falciparum DD2. The series can be described thus: microbe, parasite or virus in culture. The conditions noted are these: for IC50: Plasmodium falciparum, DD2, read-out: IC50 (DD2). Format: cell-based, Plasmodium falciparum.
Excerpt: as §1

A further series has as its system food vacuole. The series is described as follows: Food vacuole integrity, parasites expressing plasmepsin II-YFP, fluorescence microscopy. Conditions: plasmepsin II-YFP marker. The format is cell-based, Plasmodium falciparum.
Series [2] deals with uninfected red blood cells.
The test system of the next series is P. falciparum. The series can be described thus: Anti-parasitic activity in vitro, human red blood cell assay. Format: cell-based, Plasmodium falciparum. As for the experimental part:
Anti-parasitic activities were measured in vitro using a human red blood cell assay. A single P. falciparum organism typically infects an erythrocyte and produces 24 progeny within 48 hours following infection. The progeny are released and rapidly infect neighboring red blood cells. […] Observations were also made during the 48 hour incubation period to assess the susceptibility of the parasite during lifecycle stages inside and outside the host erythrocyte. […] One goal of targeting parasite membranes, rather than proteins or metabolic pathways, represents a highly innovative and novel strategy for treating parasitic diseases and distinguishes this approach from most others in this field.

The mark [3] stands for this setting: Plasmodium falciparum, 3D7, 60 h.

Broadly, the IC50 is the concentration needed to halve the response being measured.

Molecules are shown by their SMILES. Read-outs that look alike come from different tables or passages of the source.

As to `C1=C(c2ccc3sc4ccc(C5=CCNCC5)cc4c3c2)CCNC1` [Compound 138], in series [1] (setting [3]), the IC50 turned out to be 213 nM.
`N=C(N)NCCCCC(=O)Nc1cc(Br)cc(NC(=O)c2cc(C(=O)Nc3cc(Br)cc(NC(=O)CCCCNC(=N)N)c3SCCNC=O)ncn2)c1SCCNC=O` [Compound 125] yielded an IC50 in series [1] (setting [3]) of 286 nM.
As to `N=C(N)NCCCc1cccc(-c2ccc3sc4ccc(-c5cccc(CCCNC(=N)N)c5)cc4c3c2)c1` [Compound 139], in series [1] (setting [3]), the IC50 worked out at 1170 nM.
Still for that read-out and setting: the same measure for `NCCNCc1cncc(-c2ccc3sc4ccc(-c5cncc(CNCCN)c5)cc4c3c2)c1` [Compound 140]: 1670 nM; for `NCCCc1cccc(-c2ccc3[nH]c4ccc(-c5cccc(CCCN)c5)cc4c3c2)c1` [Compound 119]: 1860 nM.
As for `c1cc(N2CCNCC2)ncc1-c1ccc2sc3ccc(-c4ccc(N5CCNCC5)nc4)cc3c2c1` [Compound 117], the IC50 in series [1] (setting [3]) stood at 301 nM.
As for `NCCc1cccc(-c2ccc3sc4ccc(-c5cccc(CCN)c5)cc4c3c2)c1` [Compound 106], the 50% inhibitory concentration (IC50) in the series on P. falciparum 3D7 (3D7 strain, read-out: IC50 (3D7)) was determined as 150 nM; in the series on P. falciparum DD2 it was 100 nM; in series [1] (setting [3]), 1150 nM. For the same compound, the “effectiveness in strain DD2” value in the series with P. falciparum DD2 (DD2 strain) was “effective”. Moreover, the “disruption of food vacuoles” value in the series with food vacuole is listed as “disrupted food vacuoles”. In addition, the cytotoxicity in the series with human HepG2 cells lay within 40 to 50 µM. The hemolytic result in series [2] is reported as “Neither compound, however, was hemolytic”.
With `NCc1cccc(-c2ccc3sc4ccc(-c5cccc(CN)c5)cc4c3c2)c1` [Compound 131], the concentration for half-maximal inhibition (IC50) in series [1] worked out at 235 nM.
Turning to `C[C@H]1[C@H](OC(=O)CCC(=O)O)O[C@@H]2O[C@@]3(C)CC[C@H]4[C@H](C)CC[C@@H]1[C@@]24OO3` [Artesunate, artesunate, reference compound], the IC50 in series [1] (setting [3]) worked out at 9 nM.
`NCCCc1ccc(-c2ccc3sc4ccc(-c5ccc(CCCN)cc5)cc4c3c2)cc1` [Compound 130]: in series [1], the IC50 came out at 2560 nM.
In series [1] (setting [3]), `COc1ccc(CCN)cc1-c1ccc2sc3ccc(-c4cc(CCN)ccc4OC)cc3c2c1` [Compound 135] yielded an IC50 of 108 nM.
Compound `NCCCc1cccc(-c2ccc3c(c2)-c2cc(-c4cccc(CCCN)c4)ccc2S3(=O)=O)c1` [Compound 133] came in with an IC50 in series [1] (setting [3]) of 2030 nM.
Compound `CCn1c2ccc(-c3cccc(CCCN)c3)cc2c2cc(-c3cccc(CCCN)c3)ccc21` [Compound 137] gave an IC50 in series [1] (setting [3]) of 604 nM.
In the case of `NCCN1CC=C(c2ccc3sc4ccc(C5=CCN(CCN)CC5)cc4c3c2)CC1` [Compound 136], the IC50 in series [1] (setting [3]) is 958 nM.
Compound `NCCc1cccc(-c2ccc3c(c2)c2cc(-c4cccc(CCN)c4)ccc2[s+]3[O-])c1` [Compound 134] returned an IC50 in series [1] (setting [3]) of 2440 nM.
`NCc1cccc(-c2ccc3[nH]c4ccc(-c5cccc(CN)c5)cc4c3c2)c1` [Compound 118] showed a concentration for half-maximal inhibition (IC50) in series [1] (setting [3]) of 364 nM.
With `NCCCc1cccc(-c2ccc3sc4ccc(-c5cccc(CCCN)c5)cc4c3c2)c1` [Compound 116], the IC50 in the series on P. falciparum (Plasmodium falciparum, Erythrocyte, minimum concentration resulting in 50% killing, 48 hour incubation) came to 50 nM; in series [1] (setting [3]), 318 nM. Moreover, the “IC50 (μM)” value in the series with P. falciparum (minimum concentration resulting in 50% killing, 48 hour incubation) is recorded as “sub-μM”. Besides, in the series with P. falciparum (minimum concentration resulting in 100% killing, 48 hour incubation), the “IC100” value is 0.850 µM. The “% Kill @ 10 μM” value in the series on P. falciparum (single concentration 10 μM) came out at 100%.
In series [1] (setting [3]), `c1cc(N2CCNCC2)ccc1-c1ccc2sc3ccc(-c4ccc(N5CCNCC5)cc4)cc3c2c1` [Compound 132] returned an IC50 of 236 nM.
In series [1] (setting [3]), `c1cc(-c2ccc3sc4ccc(-c5ccnc(N6CCNCC6)c5)cc4c3c2)cc(N2CCNCC2)n1` [Compound 110] displayed an IC50 of 584 nM.
In series [1], `NCCCc1cccc(-c2ccc3c(c2)-c2cc(-c4cccc(CCCN)c4)ccc2S3(=O)=O)c1` [Compound 141] registered an IC50 of 1340 nM.
`NCCCc1cccc(-c2ccc3oc4ccc(-c5cccc(CCCN)c5)cc4c3c2)c1` [Compound 120] showed an IC50 in series [1] (setting [3]) of 604 nM.
As for `CCN(CC)CCCC(C)Nc1ccnc2cc(Cl)ccc12` (stereo not shown) [chloroquine, reference compound], the IC50 in the series on P. falciparum 3D7 (3D7, read-out: IC50 (3D7)) was 20 nM; in the series on P. falciparum DD2 it was 80 nM. In addition, the “resistance of DD2 strain relative to 3D7 strain” value in the series on P. falciparum DD2 (DD2 vs 3D7) is given as 4 times.

Source of the values: patent publication US8796275B2, “Anti-malarial compounds” (The Trustees of the University of Pennsylvania, priority 2008, dated 2014).
